Measurements reported in patent US9693556B2, “Herbicidal pyridazinone derivatives” (SYNGENTA LIMITED, priority 2011, dated 2017).

Experiments:
Type in all cases: in vivo
[1] = test system: Echinochloa crus-galli (ECHCG); experiment: Post-emergence herbicidal glasshouse test on Echinochloa crus-galli; conditions: post-emergence; 1000 g/h; evaluated after 13 days
Procedure, shortened: (§1)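 Application rate 1000 g/h, formulated in acetone/water (50:50) with 0.5% Tween 20 and sprayed onto pots sown 1 day (pre-emergence) or 8 days (post-emergence) earlier. Evaluation at 13 days rated damage from 1 (0-19%) to 5 (80-100%).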

Solanum nigrum (SOLNI) [2] = experiment: Pre-emergence herbicidal glasshouse test on Solanum nigrum; conditions: pre-emergence; 1000 g/h; evaluated after 13 days
Procedure, shortened: as §1

[3] = test system: Ipomoea hederacea (IPOHE); experiment: Pre-emergence herbicidal glasshouse test on Ipomoea hederacea; conditions: pre-emergence; 1000 g/h; evaluated after 13 days
Procedure, shortened: as §1

[4] = test system: Amaranthus retoflexus (AMARE); experiment: Pre-emergence herbicidal glasshouse test on Amaranthus retoflexus; conditions: pre-emergence; 1000 g/h; evaluated after 13 days
Procedure, shortened: as §1

[5] = test system: Alopecurus myosuroides (ALOMY); experiment: Pre-emergence herbicidal glasshouse test on Alopecurus myosuroides; conditions: pre-emergence; 1000 g/h; evaluated after 13 days
Procedure, shortened: as §1

[6] = test system: Amaranthus retoflexus (AMARE); experiment: Post-emergence herbicidal glasshouse test on Amaranthus retoflexus; conditions: post-emergence; 1000 g/h; evaluated after 13 days
Procedure, shortened: as §1

[7] = test system: Echinochloa crus-galli (ECHCG); experiment: Pre-emergence herbicidal glasshouse test on Echinochloa crus-galli; conditions: pre-emergence; 1000 g/h; evaluated after 13 days
Procedure, shortened: as §1

Solanum nigrum (SOLNI) [8] = experiment: Post-emergence herbicidal glasshouse test on Solanum nigrum; conditions: post-emergence; 1000 g/h; evaluated after 13 days
Procedure, shortened: as §1

Setaria faberi (SETFA) [9] = experiment: Post-emergence herbicidal glasshouse test on Setaria faberi; conditions: post-emergence; 1000 g/h; evaluated after 13 days
Procedure, shortened: as §1

[10] = test system: Ipomoea hederacea (IPOHE); experiment: Post-emergence herbicidal glasshouse test on Ipomoea hederacea; conditions: post-emergence; 1000 g/h; evaluated after 13 days
Procedure, shortened: as §1

Setaria faberi (SETFA) [11] = experiment: Pre-emergence herbicidal glasshouse test on Setaria faberi; conditions: pre-emergence; 1000 g/h; evaluated after 13 days
Procedure, shortened: as §1

[12] = test system: Alopecurus myosuroides (ALOMY); experiment: Post-emergence herbicidal glasshouse test on Alopecurus myosuroides; conditions: post-emergence; 1000 g/h; evaluated after 13 days
Procedure, shortened: as §1

Structure (SMILES)	POST Application ECHCG herbicidal damage (five point scale) [1]	PRE Application SOLNI herbicidal damage (five point scale) (Solanum nigrum (SOLNI) [2])	PRE Application IPOHE herbicidal damage (five point scale) [3]	PRE Application AMARE herbicidal damage (five point scale) [4]	PRE Application ALOMY herbicidal damage (five point scale) [5]	POST Application AMARE herbicidal damage (five point scale) [6]	PRE Application ECHCG herbicidal damage (five point scale) [7]	POST Application SOLNI herbicidal damage (five point scale) (Solanum nigrum (SOLNI) [8])	POST Application SETFA herbicidal damage (five point scale) (Setaria faberi (SETFA) [9])	POST Application IPOHE herbicidal damage (five point scale) [10]	PRE Application SETFA herbicidal damage (five point scale) (Setaria faberi (SETFA) [11])	POST Application ALOMY herbicidal damage (five point scale) [12]
CC(C)S(=O)(=O)c1ccccc1-c1cnn(C)c(=O)c1O [Compound 1.044]	5 (5=80-100% damage)	5 (5=80-100% damage)	1 (1=0-19% damage)	5 (5=80-100% damage)	5 (5=80-100% damage)	5 (5=80-100% damage)	5 (5=80-100% damage)	5 (5=80-100% damage)	5 (5=80-100% damage)	5 (5=80-100% damage)	5 (5=80-100% damage)	5 (5=80-100% damage)
Cc1c(Cl)ccc(-c2cnn(C)c(=O)c2O)c1F [Compound 1.045]	1 (1=0-19% damage)	1 (1=0-19% damage)	1 (1=0-19% damage)	1 (1=0-19% damage)	1 (1=0-19% damage)	2 (2=20-39% damage)	1 (1=0-19% damage)	4 (4=60-79% damage)	1 (1=0-19% damage)	1 (1=0-19% damage)	1 (1=0-19% damage)	1 (1=0-19% damage)
Cn1ncc(-c2ccccc2S(C)(=O)=O)c(O)c1=O [Compound 1.046]	5 (5=80-100% damage)	5 (5=80-100% damage)	1 (1=0-19% damage)	5 (5=80-100% damage)	5 (5=80-100% damage)	5 (5=80-100% damage)	5 (5=80-100% damage)	5 (5=80-100% damage)	5 (5=80-100% damage)	5 (5=80-100% damage)	3 (3=40-59% damage)	5 (5=80-100% damage)
CCCC[S+]([O-])c1ccccc1-c1cnn(C)c(=O)c1O (stereo not drawn) [Compound 1.047]	1 (1=0-19% damage)	1 (1=0-19% damage)	1 (1=0-19% damage)	1 (1=0-19% damage)	1 (1=0-19% damage)	3 (3=40-59% damage)	1 (1=0-19% damage)	4 (4=60-79% damage)	1 (1=0-19% damage)	3 (3=40-59% damage)	1 (1=0-19% damage)	1 (1=0-19% damage)
Cn1ncc(-c2ccc(S(C)(=O)=O)c(COCC(F)(F)F)c2Cl)c(O)c1=O [Compound 1.049]	5 (5=80-100% damage)	5 (5=80-100% damage)	1 (1=0-19% damage)	5 (5=80-100% damage)	2 (2=20-39% damage)	5 (5=80-100% damage)	5 (5=80-100% damage)	5 (5=80-100% damage)	5 (5=80-100% damage)	5 (5=80-100% damage)	3 (3=40-59% damage)	5 (5=80-100% damage)
Cn1ncc(-c2ccc(S(C)(=O)=O)c(Cl)c2Cl)c(O)c1=O [Compound 1.050]	5 (5=80-100% damage)	3 (3=40-59% damage)	1 (1=0-19% damage)	5 (5=80-100% damage)	1 (1=0-19% damage)	5 (5=80-100% damage)	5 (5=80-100% damage)	5 (5=80-100% damage)	4 (4=60-79% damage)	5 (5=80-100% damage)	2 (2=20-39% damage)	2 (2=20-39% damage)
CCCCS(=O)(=O)c1ccccc1-c1cnn(C)c(=O)c1O [Compound 1.051]	2 (2=20-39% damage)	1 (1=0-19% damage)	1 (1=0-19% damage)	5 (5=80-100% damage)	2 (2=20-39% damage)	5 (5=80-100% damage)	4 (4=60-79% damage)	5 (5=80-100% damage)	2 (2=20-39% damage)	4 (4=60-79% damage)	1 (1=0-19% damage)	1 (1=0-19% damage)
Cn1ncc(-n2ccc(C(F)(F)F)c(-c3ccccc3C(F)(F)F)c2=O)c(O)c1=O [Compound 1.052]	5 (5=80-100% damage)	5 (5=80-100% damage)	1 (1=0-19% damage)	5 (5=80-100% damage)	4 (4=60-79% damage)	5 (5=80-100% damage)	5 (5=80-100% damage)	5 (5=80-100% damage)	5 (5=80-100% damage)	5 (5=80-100% damage)	4 (4=60-79% damage)	4 (4=60-79% damage)
Cc1ccccc1-c1c(C(F)(F)F)ccn(-c2cnn(C)c(=O)c2O)c1=O [Compound 1.053]	5 (5=80-100% damage)	5 (5=80-100% damage)	2 (2=20-39% damage)	5 (5=80-100% damage)	5 (5=80-100% damage)	5 (5=80-100% damage)	5 (5=80-100% damage)	5 (5=80-100% damage)	4 (4=60-79% damage)	5 (5=80-100% damage)	4 (4=60-79% damage)	5 (5=80-100% damage)
